Results from US7601716B2, “Pyridopyrazines and derivatives thereof as ALK and c-Met inhibitors” (Cephalon, Inc., priority 2006, dated 2009).
Structures can show the parent of a compound that is named as a salt.

Assays:
[1] = biological target: T1, c-Met (cytoplasmic domain) (Homo sapiens, UniProt P08581); assay: c-Met Kinase Assay (ELISA/TRF, PLC-γ substrate); assay type: biochemical; details: 3 μM ATP (Km level); read-out: c-Met Kinase Inhibition (IC50)
T1 construct: Reactions were initiated with 30 ng/mL c-Met (cytoplasmic domain, Invitrogen Corporation #PV3143); purchased Invitrogen Corporation PV3143
T1 sequence (P08581 956-1390 limits assumed): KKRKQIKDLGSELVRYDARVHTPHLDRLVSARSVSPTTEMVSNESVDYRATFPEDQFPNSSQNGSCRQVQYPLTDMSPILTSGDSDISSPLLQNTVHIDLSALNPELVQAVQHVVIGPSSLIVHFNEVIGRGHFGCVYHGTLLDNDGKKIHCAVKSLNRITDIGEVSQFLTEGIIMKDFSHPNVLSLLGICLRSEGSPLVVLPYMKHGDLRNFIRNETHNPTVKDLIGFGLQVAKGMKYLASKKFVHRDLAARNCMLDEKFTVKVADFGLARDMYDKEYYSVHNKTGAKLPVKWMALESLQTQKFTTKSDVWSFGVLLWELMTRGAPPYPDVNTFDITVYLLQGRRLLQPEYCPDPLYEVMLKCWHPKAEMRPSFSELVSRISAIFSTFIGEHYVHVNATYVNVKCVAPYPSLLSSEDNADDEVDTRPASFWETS
Outline: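 Readout is TRF of europium anti-phosphotyrosine (PT66) bound to GST–PLC-γ substrate coated at 10 μg/mL, after a 15 min, 37 °C reaction started with 30 ng/mL c-Met cytoplasmic domain. Percent inhibition plotted against log compound concentration and fitted (variable slope) for IC50.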

[2] = biological target: T2, c-Met (phospho-c-Met) in HT29 cells (Homo sapiens, UniProt P08581); assay: c-Met Cellular Activity/Autophosphorylation Assay, HT29 cells; assay type: cell-based; details: for inhibition at 1 µM: HT-29, 1 μM compound, read-out: c-Met autophosphorylation inhibition score, HT29 Cells (1 μM); for inhibition at 3 µM: HT-29, 3 μM compound, read-out: c-Met autophosphorylation inhibition score, HT29 Cells (3 μM)
T2 construct: endogenous in cells; host or cells: HT29, A549 (HGF-stimulated), GTL-16
T2 sequence (P08581 25-1390): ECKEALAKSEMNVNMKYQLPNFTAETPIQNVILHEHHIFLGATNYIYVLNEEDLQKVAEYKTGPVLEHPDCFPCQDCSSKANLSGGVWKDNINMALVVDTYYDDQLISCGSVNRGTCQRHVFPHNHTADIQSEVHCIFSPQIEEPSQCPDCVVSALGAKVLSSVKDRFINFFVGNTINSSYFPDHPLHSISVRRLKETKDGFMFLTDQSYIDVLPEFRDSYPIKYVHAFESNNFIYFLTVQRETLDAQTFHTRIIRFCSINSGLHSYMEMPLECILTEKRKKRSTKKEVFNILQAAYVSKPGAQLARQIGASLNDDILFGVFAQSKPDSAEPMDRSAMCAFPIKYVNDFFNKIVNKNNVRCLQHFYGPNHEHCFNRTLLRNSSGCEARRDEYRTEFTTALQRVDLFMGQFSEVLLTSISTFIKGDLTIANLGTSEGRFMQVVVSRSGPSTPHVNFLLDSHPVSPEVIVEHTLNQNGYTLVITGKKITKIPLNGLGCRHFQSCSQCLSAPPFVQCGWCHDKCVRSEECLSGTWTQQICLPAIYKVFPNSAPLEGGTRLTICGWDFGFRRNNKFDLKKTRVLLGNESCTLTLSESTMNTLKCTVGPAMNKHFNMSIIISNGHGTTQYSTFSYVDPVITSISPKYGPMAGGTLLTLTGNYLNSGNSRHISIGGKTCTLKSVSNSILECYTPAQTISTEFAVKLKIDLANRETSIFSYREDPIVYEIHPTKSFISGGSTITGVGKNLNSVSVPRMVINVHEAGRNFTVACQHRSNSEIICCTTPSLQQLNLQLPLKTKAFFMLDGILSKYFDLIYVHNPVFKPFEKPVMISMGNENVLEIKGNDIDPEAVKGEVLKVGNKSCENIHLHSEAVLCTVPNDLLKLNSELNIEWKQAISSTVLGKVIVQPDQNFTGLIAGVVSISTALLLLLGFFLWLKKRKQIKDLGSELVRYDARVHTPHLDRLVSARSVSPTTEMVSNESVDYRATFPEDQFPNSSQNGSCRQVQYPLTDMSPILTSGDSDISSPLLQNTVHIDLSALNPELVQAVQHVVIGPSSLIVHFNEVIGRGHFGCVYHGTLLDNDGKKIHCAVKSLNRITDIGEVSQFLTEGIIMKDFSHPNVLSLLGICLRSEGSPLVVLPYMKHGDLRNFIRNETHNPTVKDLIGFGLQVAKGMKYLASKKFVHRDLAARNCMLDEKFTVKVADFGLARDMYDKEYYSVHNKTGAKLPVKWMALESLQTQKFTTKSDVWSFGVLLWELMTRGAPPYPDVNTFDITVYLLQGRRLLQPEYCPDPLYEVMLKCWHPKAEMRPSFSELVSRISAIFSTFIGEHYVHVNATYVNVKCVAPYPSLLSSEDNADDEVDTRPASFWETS
Experimental: (§1) HT29 and GTL-16 cells were serum starved for one hour in media containing 0.05% BSA and varying concentrations of Example compounds (1-10 μM). A549 cells were serum starved overnight in media containing 0.05% BSA then treated for one hour with Example compounds followed by a 15 minute stimulation with 50 ng/mL HGF (Peprotech, Rocky Hill, N.J.), respectively. Samples were resolved by electrophoresis on a 3-8% Tris-Acetate gel (40 ma/gel) and then transferred to a nitrocellulose membrane. Membranes were blocked for one hour at room temperature in Odyssey Blocking Buffer (Licor #927-40000) diluted 1:1 with 1×TBS. Membranes were then co-incubated overnight at 4° C. with primary antibodies [total Met (Cell Signaling, #3127) and Phospho-Met (Biosource, #44-888G) 1:1000 each in Odyssey Blocking Buffer diluted 1:1 with 1×TBS-T 0.05%]. The next day, membranes were washed and co-incubated with secondary antibodies [Goat anti mouse IRDye800 (Rockland, #610-132-121) and Goat anti rabbit Alexa fluor 700 (Molecular Probes, #A21038) 1:10,000] in Odyssey Blocking Buffer diluted 1:1 with 1×TBS-T 0.05% for one hour at room temperature protected from light. Blots were then washed and read on the Odyssey Infrared Imager. Total c-Met signal was visualized at 800 nm detection and phospho-c-Met signal was visualized at 700 nm detection.

[3] = biological target: T3, c-Met (phospho-c-Met) in A549 cells (Homo sapiens, UniProt P08581); assay: c-Met Cellular Activity/Autophosphorylation Assay, A549 cells (HGF stimulated); assay type: cell-based; details: 50 ng/mL HGF; for inhibition at 1 µM: 1 μM compound, read-out: c-Met autophosphorylation inhibition score, A549 Cells (1 μM); for inhibition at 3 µM: 3 μM compound, read-out: c-Met autophosphorylation inhibition score, A549 Cells (3 μM)
T3 construct: endogenous in cells; host or cells: HT29, A549 (HGF-stimulated), GTL-16
Experimental: as §1

[4] = biological target: baculovirus-expressed ALK (Homo sapiens, UniProt Q9UM73); assay: ALK Kinase Assay (ELISA/TRF, PLC-γ substrate); assay type: biochemical; details: read-out: ALK Kinase Inhibition (IC50); note: 1 µM ATP (Km level)
baculovirus-expressed ALK, sequence (Q9UM73 19-1620): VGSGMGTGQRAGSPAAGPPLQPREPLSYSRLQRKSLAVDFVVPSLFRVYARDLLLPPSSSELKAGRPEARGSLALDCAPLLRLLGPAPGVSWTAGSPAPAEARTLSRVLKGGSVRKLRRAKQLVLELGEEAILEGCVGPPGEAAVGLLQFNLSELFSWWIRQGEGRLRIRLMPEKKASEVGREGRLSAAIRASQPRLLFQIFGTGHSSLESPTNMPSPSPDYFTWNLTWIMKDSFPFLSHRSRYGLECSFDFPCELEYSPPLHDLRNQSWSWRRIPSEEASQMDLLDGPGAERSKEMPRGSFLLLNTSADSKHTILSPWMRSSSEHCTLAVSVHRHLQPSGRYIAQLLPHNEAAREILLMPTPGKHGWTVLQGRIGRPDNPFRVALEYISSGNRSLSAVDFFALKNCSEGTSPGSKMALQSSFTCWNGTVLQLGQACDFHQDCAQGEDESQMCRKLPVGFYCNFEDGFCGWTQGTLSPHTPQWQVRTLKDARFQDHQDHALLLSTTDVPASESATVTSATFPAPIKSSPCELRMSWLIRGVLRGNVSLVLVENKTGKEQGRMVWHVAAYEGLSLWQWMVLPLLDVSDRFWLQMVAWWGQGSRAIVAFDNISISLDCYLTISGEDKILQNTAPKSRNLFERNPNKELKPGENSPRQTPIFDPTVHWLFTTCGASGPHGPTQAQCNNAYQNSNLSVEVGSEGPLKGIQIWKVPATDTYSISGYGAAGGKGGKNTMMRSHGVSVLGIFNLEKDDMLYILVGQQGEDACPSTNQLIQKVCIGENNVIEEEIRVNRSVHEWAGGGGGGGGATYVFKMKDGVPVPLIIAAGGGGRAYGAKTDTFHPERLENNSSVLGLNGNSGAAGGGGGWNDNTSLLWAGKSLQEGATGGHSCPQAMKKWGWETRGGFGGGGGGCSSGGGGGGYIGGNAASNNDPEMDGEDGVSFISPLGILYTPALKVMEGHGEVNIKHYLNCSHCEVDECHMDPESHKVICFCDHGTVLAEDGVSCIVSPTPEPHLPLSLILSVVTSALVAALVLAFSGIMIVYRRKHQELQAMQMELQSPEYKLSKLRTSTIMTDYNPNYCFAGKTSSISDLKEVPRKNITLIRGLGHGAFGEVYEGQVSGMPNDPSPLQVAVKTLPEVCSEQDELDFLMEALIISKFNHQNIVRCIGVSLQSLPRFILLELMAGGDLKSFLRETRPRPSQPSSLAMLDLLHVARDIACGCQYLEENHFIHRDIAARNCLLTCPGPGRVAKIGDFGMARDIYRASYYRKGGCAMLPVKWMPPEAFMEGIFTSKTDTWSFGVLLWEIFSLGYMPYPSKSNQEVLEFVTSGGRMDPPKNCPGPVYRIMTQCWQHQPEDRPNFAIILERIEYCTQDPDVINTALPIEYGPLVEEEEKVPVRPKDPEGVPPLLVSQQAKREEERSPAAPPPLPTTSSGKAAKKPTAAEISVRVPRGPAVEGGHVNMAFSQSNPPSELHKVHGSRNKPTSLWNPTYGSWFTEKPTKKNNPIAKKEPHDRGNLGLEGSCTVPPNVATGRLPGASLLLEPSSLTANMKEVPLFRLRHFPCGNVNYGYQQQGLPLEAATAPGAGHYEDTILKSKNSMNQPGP
Outline: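 ALK at 30 ng/ml phosphorylated plate-bound PLC-γ–GST fusion (coated from 10 μg/mL) during 15 minutes at 37° C. Product was detected with Eu-N1 PT66 anti-phosphotyrosine antibody and measured by time-resolved fluorescence.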

NPM-ALK = biological target: T4, NPM-ALK (Homo sapiens, UniProt Q9UM73); assay: ALK Cellular Assay (phospho-NPM-ALK immunoblot / ALK tyrosine phosphorylation ELISA); assay type: cell-based
T4 construct: a fusion protein consisting of nucleophosmin (NMP) and the intracellular domain of ALK; the other entry of the earlier key: NPM1 (P06748, Nucleophosmin)
T4 sequence (Q9UM73 with tags, fused parts or gaps): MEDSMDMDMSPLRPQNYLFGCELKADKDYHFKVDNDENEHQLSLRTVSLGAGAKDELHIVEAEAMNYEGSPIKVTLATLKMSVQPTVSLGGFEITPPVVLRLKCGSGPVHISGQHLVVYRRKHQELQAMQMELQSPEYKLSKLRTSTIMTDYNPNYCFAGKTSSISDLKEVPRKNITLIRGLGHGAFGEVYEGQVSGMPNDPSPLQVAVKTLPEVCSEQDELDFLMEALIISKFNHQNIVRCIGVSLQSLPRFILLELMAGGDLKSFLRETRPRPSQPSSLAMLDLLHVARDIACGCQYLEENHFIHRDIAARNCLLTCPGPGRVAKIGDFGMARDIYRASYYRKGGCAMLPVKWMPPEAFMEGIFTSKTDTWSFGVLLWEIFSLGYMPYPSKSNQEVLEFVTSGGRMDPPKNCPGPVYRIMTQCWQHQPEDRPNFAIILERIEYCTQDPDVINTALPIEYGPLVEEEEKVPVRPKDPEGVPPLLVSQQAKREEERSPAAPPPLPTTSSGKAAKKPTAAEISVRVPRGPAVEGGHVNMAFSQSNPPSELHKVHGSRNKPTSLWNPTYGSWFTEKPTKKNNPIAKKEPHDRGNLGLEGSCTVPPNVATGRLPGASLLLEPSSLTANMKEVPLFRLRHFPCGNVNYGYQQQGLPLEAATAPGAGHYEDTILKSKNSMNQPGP
Experimental: Immunoblotting of phospho-NPM-ALK and total NPM-ALK from cell lysates was carried out according to the protocols provided by the antibody suppliers. In brief, after treatment of Example compounds, cells were lysed in Frak lysis buffer [10 mM Tris, pH 7.5, 1% Triton X-100, 50 mM sodium chloride, 20 mM sodium fluoride, 2 mM sodium pyrophosphate, 0.1% BSA, plus freshly prepared 1 mM activated sodium vanadate, 1 mM dithiothreitol (#165680050, ARCOS Organics, Geel, Belgium), and 1 mM PMSF (#837091, Boehringer Mannheim Biochemicals, Indianapolis, Ind.), protease inhibitors cocktail III (#539134-1Set, Calbiochem, 1:100 dilution)]. After brief sonication, the lysates were cleared by centrifugation, mixed with sample buffer and subjected to SDS-PAGE. Following transfer to membranes, the membranes were blotted with either rabbit phospho-NPM-ALK(Y664) (Cat^#3341) or ALK antibody (Cat^#3342) from Cell Signaling Technology (Beverly, Mass.), and then the HRP-conjugated goat anti-rabbit antibodies (Santa Cruz, Calif.) after washed in TBS/0.2% Tween-20. The protein bands were visualized with ECL Western Blotting detection reagents (RPN2106, Amersham Biosciences, Buckinghamshire, UK) and quantitated with gel-pro analyzer 3.1 software.
To measure ALK tyrosine phosphorylation in cells with an ELISA assay, fluoronunc plates (Cat^#437796, Nalge Nunc, Rochester, N.Y.) were pre-coated with goat anti-mouse IgG, and incubated with the capture mouse ALK antibody (Cat^#35-4300, Zymed, Seattle, Wash.) diluted 1:1000 in Superblock (Pierce, Rockford, Ill.). Following blocking, cell lysates were added to plates and incubated overnight at 4° C. Plates were incubated with the detecting antibody, anti-phospho-ALK (Y664) (Cell Signaling Technology), diluted at 1:2000, followed by incubation with goat anti-rabbit-IgG alkaline phosphatase to amplify the detection. Wells were exposed to the fluorogenic substrate 4-MeUP (#3368-04-5, Calbiochem) and the signal quantified using a CytoFluor® (series 4000) Fluorescence Multi-Well Plate Reader (Applied Biosystems, Foster City, Calif.).

IC50 [1] [nM]	inhibition at 1 µM [2] [%]	inhibition at 3 µM [2] [%]	inhibition at 1 µM [3] [%]	inhibition at 3 µM [3] [%]	melting point	IC50 [4] [nM]	IC50 (NPM-ALK) [nM]	inhibition at 1 µM (NPM-ALK; NPM-ALK, 1 μM compound, read-out: ALK Cellular Activity Inhibition Score at 1 μM) [%]	Compound
1000 to 10000	0 to 25	26 to 50	0 to 25	0 to 25	111 to 113 °C	100 to 1000			O=C(c1ccc(-c2cnc3c(c2)N(Cc2cc(F)ccc2F)CCN3)cn1)N1CCOCC1 [Example 76, {5-[1-(2,5-Difluorobenzyl)-1,2,3,4-tetrahydropyrido[2,3-b]pyrazin-7-yl]-pyridin-2-yl}morpholin-4-yl-methanone]
1000 to 10000	26 to 50	51 to 75	0 to 25	26 to 50		100 to 1000			Fc1ccc(F)c(CN2CCNc3ncc(-c4ccnc(N5CCOCC5)c4F)cc32)c1Cl [Example 102, 1-(2-Chloro-3,6-difluorobenzyl)-7-(3-fluoro-2-morpholin-4-yl-pyridin-4-yl)-1,2,3,4-tetrahydropyrido[2,3-b]pyrazine]
10000 to 100000	0 to 25	26 to 50	0 to 25	0 to 25		1000 to 10000			CC(C)(C)OC(=O)NCC#Cc1cnc2c(c1)N(Cc1cc(Cl)ccc1Cl)CCN2 [Example 168, {3-[1-(2,5-Dichlorobenzyl)-1,2,3,4-tetrahydropyrido[2,3-b]pyrazin-7-yl]prop-2-ynyl}carbamic acid tert-butyl ester]
	26 to 50	51 to 75	0 to 25	26 to 50					CN1CCN(c2ccc(-c3cnc4c(c3)N(Cc3cc(Cl)ccc3C(F)(F)F)CCN4)cn2)CC1 [Example 118, 1-(5-Chloro-2-trifluoromethylbenzyl)-7-[6-(4-methylpiperazin-1-yl)pyridin-3-yl]-1,2,3,4-tetrahydropyrido[2,3-b]pyrazine]
100 to 1000	0 to 25	26 to 50	0 to 25	0 to 25		< 100			O=C(c1ccc(-c2cnc3c(c2)N(Cc2cc(Cl)ccc2C(F)(F)F)CCN3)cc1)N1CCC(N2CCOCC2)CC1 [Example 287, (4-{1-[5-Chloro-2-(trifluoromethyl)benzyl]-1,2,3,4-tetrahydropyrido[2,3-b]pyrazin-7-yl}phenyl)-(4-morpholin-4-yl-piperidin-1-yl)methanone]
100 to 1000						< 100	≤ 250		Fc1ccc(F)c(CN2CCNc3ncc(-c4cccc(N5CCOCC5)c4)cc32)c1Cl [Example 189, 1-(2-Chloro-3,6-difluorobenzyl)-7-(3-morpholin-4-yl-phenyl)-1,2,3,4-tetrahydropyrido[2,3-b]pyrazine]
1000 to 10000						< 100	251 to 500		COC1CCN(C(=O)c2ccc(-c3cnc4c(c3)N(Cc3cc(Cl)ccc3C(F)(F)F)CCN4)cc2)CC1 [Example 205]
1000 to 10000	26 to 50	26 to 50	0 to 25	26 to 50		100 to 1000			CN1CCN(c2ccc(-c3cnc4c(c3)N(S(=O)(=O)c3cc(F)ccc3F)CCN4)cn2)CC1 [Example 122, 1-(2,5-Difluorobenzenesulfonyl)-7-[6-(4-methylpiperazin-1-yl)pyridin-3-yl]-1,2,3,4-tetrahydropyrido[2,3-b]pyrazine]
1000 to 10000						< 100	251 to 500		CN(C)CCCCNC(=O)c1cnc2c(c1)N(Cc1cc(Cl)ccc1C(F)(F)F)CCN2 [Example 295, 1-[5-Chloro-2-(trifluoromethyl)benzyl]-1,2,3,4-tetrahydropyrido[2,3-b]pyrazine-7-carboxylic acid [4-(dimethylamino)butyl]amide]
10000 to 100000						< 100	251 to 500		CC(c1cc(F)ccc1F)N1CCNc2ncc(-c3ccc(C(=O)N4CCC[C@H]4CN4CCCC4)cc3)cc21 (stereo partly drawn) [Example 154, S-(4-{1-[1-(2,5-Difluorophenyl)ethyl]-1,2,3,4-tetrahydropyrido[2,3-b]pyrazin-7-yl}phenyl)-{2-[(pyrrolidin-1-yl)methyl]pyrrolidin-1-yl}methanone]
1000 to 10000						100 to 1000		0 to 25	CN(C)CCCCNC(=O)c1ccc(-c2cnc3c(c2)N(Cc2c(Cl)cccc2Cl)C(=O)CN3)cc1 [Example 144, 4-[1-(2,6-Dichlorobenzyl)-2-oxo-1,2,3,4-tetrahydropyrido[2,3-b]pyrazin-7-yl]-N-(4-dimethylaminobutyl)benzamide, trifluoroacetic acid salt]
1000 to 10000	26 to 50	26 to 50	0 to 25	26 to 50		100 to 1000			CN1CCN(c2ccc(-c3cnc4c(c3)N(Cc3cc(C(F)(F)F)ccc3Cl)CCN4)cn2)CC1 [Example 120, 1-(2-Chloro-5-trifluoromethylbenzyl)-7-[6-(4-methylpiperazin-1-yl)pyridin-3-yl]-1,2,3,4-tetrahydropyrido[2,3-b]pyrazine]
100 to 1000						100 to 1000	501 to 750		O=C(c1ccc(-c2cnc3c(c2)N(Cc2ccccc2)CCN3)cc1)N1CCC[C@H]1CN1CCCC1 [Example 38, [4-(1-Benzyl-1,2,3,4-tetrahydropyrido[2,3-b]pyrazin-7-yl)phenyl]-((S)-2-pyrrolidinylmethylpyrrolidin-1-yl)methanone, trifluoroacetic acid salt]
1000 to 10000	26 to 50	26 to 50	0 to 25	0 to 25	240 °C (dec.)	100 to 1000			O=C(O)c1ccc(-c2cnc3c(c2)N(Cc2cc(F)ccc2F)CCN3)cn1 [Example 72, 5-[1-(2,5-Difluorobenzyl)-1,2,3,4-tetrahydropyrido[2,3-b]pyrazin-7-yl]-pyridine-2-carboxylic acid]
1000 to 10000						< 100	251 to 500		CN1CCN(C(=O)c2ccc(-c3cnc4c(c3)N(Cc3cc(Cl)ccc3Cl)CCN4)cc2)CC1 [Example 132, {4-[1-(2,5-Dichlorobenzyl)-1,2,3,4-tetrahydropyrido[2,3-b]pyrazin-7-yl]phenyl}-(4-methylpiperazin-1-yl)methanone]
